Measurements reported in patent US9351915B2, “Ascorbic acid derivative composition and production method of the same, ascorbic acid derivative solution, and skin external preparation” (SHOWA DENKO K.K., priority 2012, dated 2016).

Tests used:
[1] = Solubility test (time until solid is absent in aqueous medium); type: physicochemical; conditions: 20° C., 500 rpm, visual observation every 5 minutes
Method: Each substance shown in Table 2 was prepared at the ratio (% by mass) indicated in Table 2 so that the total amount was 100 g. First, pure water or a mixture of pure water and methanol serving as a solvent was placed in a beaker having a capacity of 200 mL, and the beaker was immersed in a water bath which was controlled to 20° C. Then, stirring was performed at a rotational speed of 500 rpm with a stirrer chip having a diameter of 2.5 cm, and the ascorbic acid derivative was mixed at the point where the liquid temperature reached 20° C. This time point was set as the zero point and the time (min) until the solid became absent in the mixture was measured. As for the end point, visual observation was carried out every 5 minutes from the start of the stirring, and the time point at which the mixture became clear was determined as the end point.

[2] = Storage stability test (aqueous solution, residual ratio by HPLC); type: physicochemical; conditions: 2% by mass ascorbic acid derivative in purified water, glass bottle with lid, 10 days at 40° C., light shielding; total of 2- and 3-phosphate salts
Excerpt: The sodium salt of L-ascorbic acid-2-phosphoric acid-6-palmitate obtained in Production Example 2 and the sodium salt of L-ascorbic acid-3-phosphoric acid-6-palmitate obtained in Production Example 4 were mixed at a ratio (% by mass) shown in Table 1 to prepare ascorbic acid derivative compositions of Examples 1 to 3.
The mixture obtained in Production Example 6 ((sodium salt of L-ascorbic acid-2-phosphoric acid-6-palmitate): (sodium salt of L-ascorbic acid-3-phosphoric acid-6-palmitate)=97.7:2.3 (mass ratio)) was used as it is as an ascorbic acid derivative composition of Example 4. […]
The concentration of ascorbic acid derivative in each of the solutions obtained before standing (immediately after preparation) and after standing for 10 days was measured, and the “residual ratio” was determined from the results by the following formula.
The concentration of ascorbic acid derivative contained in the solution was measured by the same measuring conditions as in the evaluation of the yield, with a high performance liquid chromatography apparatus using the Shodex SB 802.5 HQ column (manufactured by Showa Denko K.K.). […]

Row | SMILES | Residual ratio (%) [2] | other results
1 | CCCCCCCCCCCCCCCC(=O)OCC(O)C1OC(=O)C(OP(=O)([O-])[O-])=C1[O-].[Na+].[Na+].[Na+] [Comp. Ex. 4, Sodium salt of L-ascorbic acid-2-phosphoric acid-6-palmitate] |  | Time required for dissolution ([1]; 10% by mass ascorbic acid derivative in 70% by mass pure water + 20% by mass methanol): 65 min
2 | CCCCCCCCCCCCCCCC(=O)OCC(O)C1OC(=O)C([O-])=C1OP(=O)([O-])[O-].[Na+].[Na+].[Na+] [Comp. Ex. 2, Sodium salt of L-ascorbic acid-3-phosphoric acid-6-palmitate] | 83.9% | 
3 | CCCCCCCCCCCCCCCC(=O)OCC(O)C1OC(=O)C(OP(=O)([O-])[O-])=C1[O-].[Na+].[Na+].[Na+] [Comp. Ex. 1, Sodium salt of L-ascorbic acid-2-phosphoric acid-6-palmitate] | 88.6% | 
4 | CCCCCCCCCCCCCCCC(=O)OCC(O)C1OC(=O)C(OP(=O)([O-])[O-])=C1[O-].[Na+].[Na+].[Na+] [Comp. Ex. 3, Sodium salt of L-ascorbic acid-2-phosphoric acid-6-palmitate] |  | Time required for dissolution ([1]; 10% by mass ascorbic acid derivative in 90% by mass pure water): 50 min
